Assay results reported in patent US12024584B2, “Methods and compositions for polyurethane dispersions using caprolactam-derived solvents” (AdvanSix Resins & Chemicals LLC, priority 2017, dated 2024).
Where two headings read alike, the source gives them in different places.

Experiments:
[1] = MFFT of pigmented and complete PUDs; assay type: physicochemical; details: pigmented and complete PUD, 3 wt. % coalescing agent
Text: (§1) Tests were first performed to determine the coalescing agent level for pigmented and complete PUD formulations in order to achieve the optimum film formation. Complete paints were mixed with 0.7 wt. %, 1.5 wt. %, 3.0 wt. % and 5.0 wt. % of coalescing agents and applied on tin plated steel at a wet film thickness of around 250 μm, where the weight percentage was based on the pure polyurethane dispersion resins. […] Based on the observations, 3 wt. % dosage of coalescing agent was selected. Complete PUD formulations with pigments, fillers and other additives were prepared as per Table 5, and used to test and determine the coalescing properties of the caprolactam-derived solvents and other known coalescing agents. The standard test for determining this temperature involves using a MFFT-BAR, as specified by standards ASTM D 2354 and ISO 2115. In general, the MFFT of a paint or coating is reduced temporarily by the use of coalescing agents.

[2] = Open time (ASTM D7488); assay type: physicochemical; details: ASTM D7488, 23±2° C., 50±5% RH, wet film 200 μm
Text: as §1, with “agents.” for “agents. The standard test for determining this temperature involves using a MFFT-BAR, as specified by standards ASTM D 2354 and ISO 2115. In general, the MFFT of a paint or coating is reduced temporarily by the use of coalescing agents.”
Open times were determined according to the ASTM D7488 “Test Method for Open Time of Latex” standard and the tests were performed under controlled temperature and humidity (23±2° C. and 50±5% RH). In general, the paints were applied at a wet film thickness of 200 μm on contrasting sealed charts by means of a doctor blade applicator, and “X” marks are made immediately with the wide curved end of a wooden paint brush. After a determined time internal, the brush was dipped into the paint to be tested and brushing of the X-marks was started in perpendicular direction to the initial drawdown using 10 strokes back and forth to work the paint under test into the drawdown area. This procedure is repeated after several time intervals. After their complete drying (1 week), the painted panels are observed by two different observers and the time for which the “X” marks to become visible is considered as the open time.

[3] = Drying time (ASTM D1640 / ASTM D5895); assay type: physicochemical; details: 200 μm humid film; blends by ASTM D1640, single solvents by ASTM D5895
Text: as §1, with “agents.” for “agents. The standard test for determining this temperature involves using a MFFT-BAR, as specified by standards ASTM D 2354 and ISO 2115. In general, the MFFT of a paint or coating is reduced temporarily by the use of coalescing agents.”
The drying times for the pigmented PUD formulations were determined according to the ASTM D1640 “Standard Test Methods for Drying, Curing, or Film Formation of Organic Coatings” standard or the ASTM D5895 “Standard Test Methods for Evaluating Drying or Curing During Film Formation of Organic Coatings Using Mechanical Recorders” standard. Four stages of drying can be identified depending on the trace left by the needle on the paint surface: Stage 1—Set-to-Touch time, Stage 2—Tack-Free time, Stage 3—Dry-Hard time, and Stage IV—Dry trough time. However, Stage IV is often hard to detect.
In general, the paints were applied at a humid film thickness of 200 μm by means of a bar coater on a Leneta sheet and the needle rate was set at 60 cm/hr.
For the present examples, the drying times for the 2:1 A:B, 1:1 A:B, and 1:2 A:B solvents were determined using the ASTM D1640 standard, and the drying times for NM CPL, NE CPL, NMP, NBP, ester amide, and ester alcohol were determined using the ASTM D5895 standard.

[4] = Persoz hardness of pigmented and complete PUDs; assay type: physicochemical; details: pigmented
Text: as §1, with “agents.” for “agents. The standard test for determining this temperature involves using a MFFT-BAR, as specified by standards ASTM D 2354 and ISO 2115. In general, the MFFT of a paint or coating is reduced temporarily by the use of coalescing agents.”
Persoz hardness measurements were performed on pigmented paints that were applied on tin plated steel using a doctor blade applicator at a dry film thickness (DFT) around 50 μm according to the ISO 1522 standard. […] For instance, the 28 day hardness for N-ethyl caprolactam (NE CPL) was approximately 104.6±0.5, while the 28 day hardness for NMP was approximately 108.8±2.4, and the 28 day hardness for ester alcohol and N-methyl caprolactam (NM CPL) were approximately 124.8±1 and 126.0±1, respectively, while the 28 day hardness for NBP was approximately 135.8±5.

[5] = Gloss of pigmented and complete PUDs (ISO 2813); assay type: physicochemical
Text: as §1, with “agents.” for “agents. The standard test for determining this temperature involves using a MFFT-BAR, as specified by standards ASTM D 2354 and ISO 2115. In general, the MFFT of a paint or coating is reduced temporarily by the use of coalescing agents.”
(§2) Gloss measurements serve as an indicator of the paints surface quality. Gloss and color measurements were determined according to the ISO 2813 standard and the ISO 7724-2 standard (SCI-D65/10°), respectively.

[6] = Color of pigmented and complete PUDs (ISO 7724-2); assay type: physicochemical
Text: as §1, with “agents.” for “agents. The standard test for determining this temperature involves using a MFFT-BAR, as specified by standards ASTM D 2354 and ISO 2115. In general, the MFFT of a paint or coating is reduced temporarily by the use of coalescing agents.”
as §2

[7] = Scrub resistance of pigmented and complete PUDs (ISO 11998); assay type: physicochemical; details: for Wt. Loss: 200 wet-scrub cycles; for Loss of thickness after 200 wet-scrub cycles: calculated from weight loss
Text: as §1, with “agents.” for “agents. The standard test for determining this temperature involves using a MFFT-BAR, as specified by standards ASTM D 2354 and ISO 2115. In general, the MFFT of a paint or coating is reduced temporarily by the use of coalescing agents.”
Scrub resistance was tested according the ISO 11998 “Paints and Varnishes—Determination of Wet-Scrub Resistance and Cleanability of Coatings” standard. In this testing method, the paint was applied on a test panel (Leneta sheet) using a film applicator at the specific gap clearance. After drying and conditioning for four weeks at room temperature the coated panel was weighed and subject to 200 wet-scrub cycles in a scrub resistance machine. The panel was then washed, dried and weighed to determine the loss from which the mean loss in film thickness was calculated. […] For instance, N-methyl caprolactam (NM CPL), N-ethyl caprolactam (NE CPL), and blends thereof in the ratios of 1:2 and 1:1, all had less loss of thickness (2.035 μm, 1.797 μm, 1.39 μm, and 1.64 μm, respectively) as compared to NMP (2.090 μm) and NBP (2.213 μm).

[8] = Freeze and thaw stability (ASTM D2243-95); assay type: physicochemical; details: for freeze-thaw stability: viscosity change (thickening of the paint): cycles of 16 hours at −20° C. and 8 hours at room temperature
Description: Water-based emulsions and dispersions are susceptible to irreversible coagulation by freezing. Freeze and thaw stability was tested according the ASTM D2243-95 standard.
For these examples, pigmented PUD paints were subject to freeze-thaw cycles of 16 hours at −20° C. and 8 hours at room temperature and subsequently subject to visible observations. The paints were then applied on a tin plated steel plate at a thickness of approximately 200 μm for observing film properties.
In addition, the freeze-thaw stability was best for caprolactam-derived coalescing agents (NM CPL) and the blends even after subject to five cycles (see FIG. 9). In particular, the paints were visually observed after each cycle to see if there was any viscosity change, i.e., thickening of the paint. Then, the dry films of the coatings were observed visually.

[9] = Solubility of DMPA in solvents
Description: Solubility was tested between the various solvents to determine their applicability in the PUD manufacturing processes. Solubility is the amount of a substance (coalescing agent) that dissolves in a unit volume of a liquid substance (solvent) to form a saturated solution under specified conditions of temperature and pressure. For the examples, amounts of […] (DMPA) were dissolved in each solvent.

[10] = Minimum film forming temperature, non-pigmented resin + coalescing agent; assay type: physicochemical; details: resin with 5 wt. % coalescing agent, film thickness 350 μm
[11] = Viscosity and storage stability of pigmented PUD formulations; assay type: physicochemical; details: 1 month at 50° C., FIG. 5
Text: as §1, with “agents.” for “agents. The standard test for determining this temperature involves using a MFFT-BAR, as specified by standards ASTM D 2354 and ISO 2115. In general, the MFFT of a paint or coating is reduced temporarily by the use of coalescing agents.”
Dispersions and emulsions tend to aggregate polyurethane particles during storage. One way to determine the stability of a polyurethane dispersion is to measure viscosity of the polyurethane dispersion over time. Viscosity is a measure of a solvent's resistance to gradual deformation by shear stress or tensile stress. […] The storage stability of the dispersions was evaluated based on variations between viscosity measurements performed on paints shortly after their preparation and after their storage for either one month at room temperature or one month at 50° C.

Compound | MFFT [10] | Solubility [9] | MFFT [1] | Open Time [2] | Drying Time [3] | Persoz Hardness ([4]; 1 Day, in s) | Persoz Hardness ([4]; 7 Days, in s) | Persoz Hardness ([4]; 14 Days, in s) | Persoz Hardness ([4]; 21 Days, in s) | Gloss 20° [5] | Gloss 60° [5] | Gloss 85° [5] | Color (Black background) L* [6] | Color (Black background) a* [6] | Color (Black background) b* [6] | Color (White background) L* [6] | Color (White background) a* [6] | Color (White background) b* [6] | Wt. Loss [7] | Loss of thickness after 200 wet-scrub cycles [7] | also measured
2, 2, 4-trimethyl-1,3-pentanediol monoisobutyrate [Ester alcohol, reference compound] | – | – | −0.4 °C | 10 min | 13.6 min | 98.2 ± 3 | 118.0 ± 1 | 120.0 ± 2 | 122.0 ± 2 | 1.3 ± 0 | 3.0 ± 0 | 19.6 ± 0.3 | 94.93 | −0.87 | 2.30 | 95.6 | −0.51 | 3.16 | 7.747 g/m^2 | 4.439 µm | Persoz Hardness ([4]; 28 Days): approximately 124.8±1; Persoz Hardness ([4]; 28 Days, in s): 124.8 ± 1; freeze-thaw stability: viscosity change (thickening of the paint) [8]: thickening of the paint samples after two cycles
COC(=O)CCCCC(=O)N(C)C [Ester amide, Hexanoic acid, 6-(dimethylamino)-6-oxo, methyl ester] | – | – | −0.6 °C | 12 min | 13.3 min | – | – | – | – | 1.3 ± 0 | 3.3 ± 0 | 24.2 ± 0.2 | 93.84 | −1.05 | 2.03 | 94.98 | −0.51 | 3.29 | 7.920 g/m^2 | 4.040 µm | Solubility ([9]; DMPA dissolved in each solvent): 10.0 g/100 g of Solvent
CCCCN1CCCC1=O [NBP, N-butyl pyrrolidone, reference compound] | −0.4±0.2 °C | – | −0.7 °C | 12 min | 11.8 min | 64.4 ± 3 | 127.0 ± 2 | 133.2 ± 5 | 136.6 ± 6 | 1.3 ± 0 | 2.8 ± 0 | 19.9 ± 0.2 | 94.00 | −1.04 | 2.20 | 95.01 | −0.56 | 3.32 | 4.142 g/m^2 | 2.213 µm | freeze-thaw stability: viscosity change (thickening of the paint) [8]: thickening of the paint samples after two cycles
CCCCN1CCCCCC1=O [N—BuCPL, N-butyl caprolactam] | −1.3±0.3 °C | 10.0 g/100 g of Solvent | – | – | – | – | – | – | – | – | – | – | – | – | – | – | – | – | – | – | –

Second part, led by results:

MFFT [10] | Solubility [9] | Compound | MFFT [1] | Open Time [2] | Drying Time [3] | Persoz Hardness ([4]; 1 Day, in s) | Persoz Hardness ([4]; 7 Days, in s) | Persoz Hardness ([4]; 14 Days, in s) | Persoz Hardness ([4]; 21 Days, in s) | Gloss 20° [5] | Gloss 60° [5] | Gloss 85° [5] | Color (Black background) L* [6] | Color (Black background) a* [6] | Color (Black background) b* [6] | Color (White background) L* [6] | Color (White background) a* [6] | Color (White background) b* [6] | Wt. Loss [7] | Loss of thickness after 200 wet-scrub cycles [7] | also measured
– | 54.0 g/100 g of Solvent | CN1CCCC1=O [NMP, N-methyl pyrrolidone, reference compound] | −1.4 °C | 12 min | 19.8 min | 94.2 ± 0.4 | 101.0 ± 2.4 | 100.6 ± 1.7 | 107.6 ± 1.3 | 1.3 ± 0 | 3.6 ± 0 | 30.7 ± 0.6 | 94.55 | −0.88 | 2.20 | 95.14 | −0.52 | 3.02 | 3.372 g/m^2 | 2.090 µm | –
−1.4±0.3 °C | 20.0 g/100 g of Solvent | CCN1CCCCCC1=O [N—EtCPL, N-ethyl caprolactam] | −2.4 °C | 16 min | 17.4 min | 101.0 ± 1.0 | 102.0 ± 0.7 | 101.4 ± 2.6 | 104.0 ± 2.8 | 1.3 ± 0 | 3.0 ± 0 | 24.5 ± 0.5 | 94.45 | −0.92 | 2.46 | 95.04 | −0.61 | 3.24 | 3.767 g/m^2 | 1.797 µm | storage stability (viscosity buildup) [11]: low viscosity buildup; effect on color (yellowing) ([6]; pigmented PUD): no yellowing; freeze-thaw stability and film properties (comparison) ([8]; FIGS. 8 and 9): better freeze-thaw stability and film properties than NBP and ester alcohol
– | 20.0 g/100 g of Solvent | N-butyl pyrrolidone [NBP, reference compound] | – | – | – | – | – | – | – | – | – | – | – | – | – | – | – | – | – | – | –
